According to patent publication US6602882B1, “Quinoline derivatives and their use as antibacterial agents” (SmithKline Beecham p.l.c., priority 1998, dated 2003):
Values after ≈ are worked out from the molar mass of the structure shown. Like-named read-outs stand apart in the source and are kept apart here.

Tests used:
Type in all cases: cell-based
[1] = tested on: S. aureus Oxford; test: MIC against S. aureus Oxford
Method: (§1) The MIC (μg/ml) of compounds 1, 3 and 4 against various organisms was determined.

[2] = tested on: E. faecalis I; test: MIC against E. faecalis I
Method: as §1

[3] = tested on: S. aureus WCUH29; test: MIC against S. aureus WCUH29
Method: as §1

[4] = tested on: S. aureus Carter 37; test: MIC against S. aureus Carter 37
Method: as §1

[5] = tested on: S. pneumoniae R6; test: MIC against S. pneumoniae R6
Method: as §1

[6] = tested on: M. catarrhalis Ravasio; test: MIC against M. catarrhalis Ravasio
Method: as §1

[7] = Staphylococcus aureus, read-out: MIC
[8] = Enterococcus faecalis, read-out: MIC
[9] = Staphylococcus aureus, CARTER37, read-out: MIC
[10] = Streptococcus pneumoniae, read-out: MIC

For `CCCCCCCN1CC[C@H](NC(=O)Nc2ccnc3ccc(OC)cc23)[C@H](CO)C1.O=C(O)C(=O)O` (relative stereo) [Example 5, N-(cis-1-Heptyl-3-(R/S)-hydroxymethyl-4-(S/R)-piperidyl)-N′-(6-methoxyquinolin-4-yl)urea oxalate], the MIC [1] was 1 µg/mL, the MIC [2] was 4 µg/mL and the MIC [3] was 1 µg/mL.

Compound `CCCCCCCN1CC[C@H](NC(=O)Nc2ccnc3ccc(OC)nc23)[C@H](CO)C1.O=C(O)C(=O)O` (relative stereo) [Example 6, N-(cis-1-Heptyl-3-(R/S)-hydroxymethyl-4-(S/R)-piperidyl)-N′-(6-methoxy-[1,5]-naphthyridin-4-yl)urea Oxalate] has an MIC [1] of 0.5 µg/mL, an MIC [2] of 8 µg/mL and an MIC [3] of 1 µg/mL.

With `CCCCCC1CCC2CC(OC(=O)Nc3ccnc4ccc(OC)cc34)CCN2C1` (centres unmarked) [Example 1, 1-Aza-8-(ax)-[(6-methoxyquinolin-4-yl)-aminocarbonyloxy]-3-(ax)-n-pentyl-bicyclo[4,4,0]decane] the MIC [1] was 2 µg/mL (≈ 4.7 µM), the MIC [2] was 8 µg/mL (≈ 18.8 µM) and the MIC [3] was 4 µg/mL (≈ 9.4 µM). For the same compound, the MIC [4] was 8 µg/mL (≈ 18.8 µM), the MIC [5] was 1 µg/mL (≈ 2.35 µM) and the MIC [6] was 32 µg/mL (≈ 75.2 µM).

Compound `CCCCCCCN1CCC(OC(=O)Nc2ccnc3ccc(OC)cc23)CC1` [Example 3, 1-Heptyl-4-[N-(6-methoxyquinolin-4-yl)aminocarbonyloxy]piperidine] has an MIC [1, 7] of 8 µg/mL (≈ 20 µM), an MIC [2, 8] of 8 µg/mL (≈ 20 µM) and an MIC [3, 7] of 4 µg/mL (≈ 10 µM). It also gave an MIC [4, 9] of 8 µg/mL (≈ 20 µM), an MIC [5, 10] of 4 µg/mL (≈ 10 µM) and an MIC ([6]; Moraxella catarrhalis, read-out: MIC) of 16 µg/mL (≈ 40 µM).

In the case of `CCCCCCCN1CCC(NC(=O)Nc2ccnc3ccc(OC)cc23)CC1` [Example 4, 1-Heptyl-4-(6-methoxyquinolin4-yl)ureidopiperidine], the MIC [1, 7] is reported as 16 µg/mL (≈ 40.1 µM), the MIC [2, 8] is reported as 8 µg/mL (≈ 20.1 µM) and the MIC [3, 7] is reported as 8 µg/mL (≈ 20.1 µM). For the same compound, the MIC [4, 9] was 16 µg/mL (≈ 40.1 µM) and the MIC [5, 10] was 2 µg/mL (≈ 5.02 µM).

In the case of `CCCCCCCN1CCC(NC(=O)Nc2ccnc3ccc(OC)nc23)CC1.O=C(O)C(=O)O` [Example 7], the MIC [1] is reported as 1 µg/mL, the MIC [2] is reported as 8 µg/mL and the MIC [3] is reported as 1 µg/mL.
